Test results reported in article PMC9029893 (International Journal of Molecular Sciences, 2022).

How the values were obtained:
[1] = system: HUVEC cells; experiment: Glucose utilization assay (2-NBDG uptake); format: cell-based, human; settings: 24 h, then insulin and 2-NBDG
Experimental: HUVEC were seeded at a density of 20,000 cells per well in 48-well plates, and were cultured in standard conditions for 24 h (medium EGM-2; volume 0.2 mL). Following this, compounds 1–8 were added at concentrations of 0.1 and 0.3 mM, and the HUVECs were incubated for another 24 h. Cells treated with ᴅ-glucose (final concentration in a sample 0.1 mM) were used as positive controls. On the following day, the cells were rinsed with PBS (Biomed Lublin, Lublin, Poland) and cultured for two hours in glucose-free DMEM medium supplemented with 1% BSA (bovine serum albumin, Sigma, St. Louis, MO, USA). Then, the cells were co-treated with insulin (final concentration 0.0001 mM) for 30 min. Afterwards, the medium was discarded and the cells were treated with 2-NBDG (final concentration 0.05 mM) for 30 min, followed by removal of the solutions of each well. The cells were washed twice with 100 µL PBS, and lysed using 1% Triton X-100 solution in PBS. The fluorescence was recorded using a microplate reader (Biotek, Instruments, Winooski, VT, USA) at 480/530 nm.
The concentration of intracellular 2-NBDG was calculated using a calibration curve obtained using 2-NBDG at concentrations ranging from 0.0001 to 0.025 mM in lysis buffer. The results are presented as mean ± SD, n = 4–6. The coefficient of variation for the assay was calculated (CV = 2.2%, n = 8).

[2] = system: HUVEC cells; experiment: HUVEC integrity in RTCA-DP system (normalized cell index); format: cell-based, human
Experimental: The effects of sulfonamides 1–8 on the integrity and barrier properties of HUVEC were examined in real-time using a cell electric impedance monitoring system (Real-Time Cell Analyzer; Roche & ACEA Biosciences, Santa Clara, CA, USA), which is based on tracking electrical impedance signals. Any changes in cell status, adhesion, and morphology are expressed by parameter Cell Index (CI). The experimental protocol has been described previously. Briefly, the cells were seeded at a density of 15,000 cells per well on E-16 plates (Roche & ACEA Biosciences, Santa Clara, CA, USA), and cultured until the cells achieved plateau phase. Then, the medium was discarded from each well, and the solutions of the test compounds dissolved in cell culturing medium (100 μL) or pure medium (100 μL, control) were added. The measurements were then carried out for 48 h. The results are presented as mean ± SD of ‘normalized cell index’ (nCI), which is calculated by the division of a CI value at a certain time point by the CI value at a reference time point. The experiments were conducted in multiplicate (n = 4–6). The method was validated and the coefficient of variability (CV) was calculated as 9.17%–15.2%, depending on the measured time point (n = 6).

[3] = system: HUVEC cells; experiment: WST-1 cell viability assay, HUVEC; settings: Homo sapiens, HUVEC, 24 h, read-out: Viability-IC50, HUVEC cells
[4] = system: AoSMC cells; experiment: WST-1 cell viability assay, AoSMC; settings: Homo sapiens, 24 h, read-out: Viability-IC50, AoSMC cells
Experimental: HUVEC and AoSMC viability were tested using the WST-1 cell viability assay (Takara Bio Europe, Saint-Germain-en-Laye, France). […] Briefly, HUVEC and AoSMC were seeded at densities of 7500 and 5000 cells per well on 96-well plates. The cells were cultivated for up to 24 h to achieve 70% confluency, and subsequently treated with tested compounds diluted in medium (1 + 9; v = 100 μL) or pure medium (control). The plates were incubated at 37 °C (5% CO2) for the next 24 h. Then, the cells were rinsed with 100 μL culture medium, and WST-1 reagent diluted in medium (100 μL) was added; the plates were then incubated again (37 °C, 5% CO2) for another 90 min. The absorbance was measured at 450 nm (iMARK, Bio-Rad, Hercules, CA, USA). The experiments were performed in multiplicate (n = 8) and the results were presented as mean ± SD. The cell viability was expressed as a percentage of the control samples, which constituted 100% viability. […] The variability coefficient of the method was estimated (CV(HUVEC) = 8.94%, n = 8; CV(AoSMC) = 5.84%, n = 10).

[5] = system: tissue plasminogen activator (t-PA) release from HUVEC; settings: cited from earlier work
[6] = system: HUVEC cells; experiment: HUVEC migration, wound-healing assay (JuLI Stage); format: cell-based, human
Experimental: The effects of compounds 1–5 on HUVEC migration were determined using the JuLI™ Stage system (NanoEntek, Seoul, Korea): a real-time cell history recorder allowing for live cell imaging and analysis. The procedure for the migration experiments has been published elsewhere in more detail. Concisely, HUVECs were seeded at a density of 10,000 cells per well on 96-well plates and incubated at standard conditions for 24 h. Following this, a wound was made with a scratcher (NanoEntek, Seoul, Korea). The cells were then rinsed with 100 μL of fresh EGM2 medium, and treated with biguanides 1–5 at the concentrations of 0.3 and 1.0 mM. The cells were incubated and monitored continuously every 10 min for 36 h at 37 °C, 5% CO2. Analysis of obtained images of cell migration, and measurements of the width of the scratch area were performed using dedicated software (NanoEntek, Seoul, Korea). The results were presented as mean ± SD, n = 4–8. The CV for the method was estimated as 14.2–24.4%, depending on the time point (n = 8).

[7] = system: AoSMC cells; settings: cited from earlier work
[8] = system: HUVEC cells; settings: 0.006–1.5 mM; cited from earlier work
[9] = system: clot formation and fibrinolysis in human citrate plasma; settings: over the entire concentration range; cited from earlier work
[10] = system: HUVEC cells; settings: cited from earlier work

Row | Compound | Glucose uptake (intracellular 2-NBDG) ([1]; 0.1 mM) [mM] | normalized Cell Index (nCI) ([2]; 0.3 mM, 3 hours) | normalized Cell Index (nCI) ([2]; 0.3 mM, 6 hours) | normalized Cell Index (nCI) ([2]; 0.3 mM, 12 hours) | normalized Cell Index (nCI) ([2]; 0.3 mM, 24 hours) | normalized Cell Index (nCI) ([2]; 0.3 mM, 36 hours) | normalized Cell Index (nCI) ([2]; 1.0 mM, 3 hours) | normalized Cell Index (nCI) ([2]; 1.0 mM, 6 hours) | normalized Cell Index (nCI) ([2]; 1.0 mM, 12 hours) | normalized Cell Index (nCI) ([2]; 1.0 mM, 24 hours) | normalized Cell Index (nCI) ([2]; 1.0 mM, 36 hours) | IC50 [3] [µM] | IC50 [4] [µM] | Glucose uptake (intracellular 2-NBDG) ([1]; 0.3 mM) [mM] | also measured
1 | OC[C@H]1OC(O)[C@H](O)[C@@H](O)[C@@H]1O (stereo partly drawn) [D-glucose, reference compound] | 0.0014 ± 0.0001 | – | – | – | – | – | – | – | – | – | – | – | – | – | –
2 | CN(C)C(=N)N=C(N)NS(=O)(=O)c1ccc(C#N)cc1 [Compound 8] | 0.0131 ± 0.0009 | 0.312 ± 0.087 | 0.461 ± 0.015 | 0.416 ± 0.062 | 0.321 ± 0.038 | 0.198 ± 0.055 | 0.006 ± 0.004 | 0.029 ± 0.006 | 0.021 ± 0.004 | 0.001 ± 0.001 | 0.001 ± 0.001 | 791 ± 130 | 1570 ± 140 | 0.0138 ± 0.0015 | –
3 | CN(C)C(=N)N=C(N)NS(=O)(=O)c1ccccc1C#N [Compound 6] | 0.0128 ± 0.0007 | 0.317 ± 0.050 | 0.424 ± 0.053 | 0.388 ± 0.07 | 0.280 ± 0.018 | 0.111 ± 0.026 | 0.010 ± 0.003 | 0.016 ± 0.005 | 0.019 ± 0.005 | 0.013 ± 0.003 | 0.009 ± 0.003 | 461 ± 130 | 1680 ± 210 | 0.0129 ± 0.0007 | –
4 | CN(C)C(=N)N=C(N)N [Metformin, dimethyl biguanide, reference compound] | 0.0146 ± 0.0009 | – | – | – | – | – | – | – | – | – | – | – | – | 0.0165 ± 0.0006 | effect on t-PA release [5]: significantly elevate; wound width ([6]; 0.3 mM, 6 hours): 570.1 ± 119.9 µm; wound width ([6]; 0.3 mM, 12 hours): 467.8 ± 106.5 µm; wound width ([6]; 0.3 mM, 18 hours): 412.1 ± 121.8 µm; wound width ([6]; 0.3 mM, 24 hours): 405.0 ± 120.7 µm; wound width ([6]; 0.3 mM, Start): 728.6 ± 62.5 µm; wound width ([6]; 1.0 mM, 6 hours): 565.4 ± 31.5 µm; wound width ([6]; 1.0 mM, 12 hours): 495.7 ± 20.0 µm; wound width ([6]; 1.0 mM, 18 hours): 482.7 ± 10.0 µm; wound width ([6]; 1.0 mM, 24 hours): 419.8 ± 42.3 µm; wound width ([6]; 1.0 mM, Start): 670.4 ± 29.2 µm; effect on viability and morphology of AoSMC cells [7]: not affect; effect on integrity and adherence of HUVEC cells [8]: not found to affect; effect on overall potential of clot formation and fibrinolysis (CLAUC) [9]: did not affect; effect on viability and morphology of HUVEC cells [10]: not affect
5 | CN(C)C(=N)N=C(N)NS(=O)(=O)c1cccc(C#N)c1 [Compound 7] | 0.0131 ± 0.0013 | 0.283 ± 0.050 | 0.367 ± 0.027 | 0.333 ± 0.030 | 0.255 ± 0.26 | 0.094 ± 0.014 | 0.013 ± 0.004 | 0.018 ± 0.001 | 0.020 ± 0.001 | 0.016 ± 0.002 | 0.013 ± 0.003 | 304 ± 120 | 1890 ± 160 | 0.0139 ± 0.001 | –
